Data from publication PMC5368959, “Uricosuric targets of tranilast” (Pharmacology Research & Perspectives, 2017).
Where two headings read alike, the source gives them in different places. Each block holds one compound with its values, some of them ahead of it.

Tests used:
Type in all cases: cell-based
[1] = target: T1, OAT10 (Homo sapiens, UniProt Q9Y226); test: [14C]-urate uptake by OAT10-expressing Xenopus oocytes; conditions: preloaded 50 nL of 100 mmol/L
Description: (§1) For uptake experiments, oocytes were washed four times with ND96 medium (pH 7.4) without pyruvate and gentamycin.
(A) Time course of [^14C]‐urate uptake by control and […] oocytes. […] Inset, western blot analysis of OAT10 protein expressed in oocytes. […] (C) [^14C]‐urate transport properties of OAT10: voltage sensitivity and Na+‐dependence was examined by replacing extracellular NaCl by KCl or LiCl. Existence of urate/Cl^− exchange mechanism or Cl^− dependence or cis‐inhibitory effects of extracellular Cl^− on was verified by [^14C]‐urate uptake via OAT10 in the absence of extracellular Cl^− ion (0 Cl^−). In 0 Cl^− bath, NaCl was replaced by Na‐gluconate (Na‐Gluc), KCl by K‐gluconate (K‐Gluc), MgCl2 by Mg‐gluconate, and CaCl2 by Ca‐gluconate. […] Data are mean ± S.E. with n = 12–15.

[2] = target: T2, URAT1 (Homo sapiens, UniProt Q96S37); test: [14C]-urate uptake by URAT1-expressing Xenopus oocytes
T2 sequence (Q96S37 1-553): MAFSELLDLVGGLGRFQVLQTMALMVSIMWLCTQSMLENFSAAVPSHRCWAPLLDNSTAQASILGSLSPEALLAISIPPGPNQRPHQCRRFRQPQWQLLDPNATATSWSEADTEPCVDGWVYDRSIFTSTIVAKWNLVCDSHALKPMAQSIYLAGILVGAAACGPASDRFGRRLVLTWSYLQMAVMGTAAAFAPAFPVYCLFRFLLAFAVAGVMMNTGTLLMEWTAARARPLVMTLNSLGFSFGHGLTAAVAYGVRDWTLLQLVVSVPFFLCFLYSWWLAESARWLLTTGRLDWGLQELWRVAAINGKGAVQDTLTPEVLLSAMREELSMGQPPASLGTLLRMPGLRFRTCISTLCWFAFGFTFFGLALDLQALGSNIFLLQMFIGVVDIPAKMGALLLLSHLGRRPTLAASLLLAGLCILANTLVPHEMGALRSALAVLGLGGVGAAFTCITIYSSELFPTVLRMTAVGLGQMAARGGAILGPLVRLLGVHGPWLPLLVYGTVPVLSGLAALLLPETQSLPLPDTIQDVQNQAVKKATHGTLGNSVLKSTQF
Description: as §1

[3] = target: T3, GLUT9a (Homo sapiens, UniProt Q9NRM0); test: [14C]-urate uptake by GLUT9a-expressing Xenopus oocytes
T3 sequence (Q9NRM0 1-540): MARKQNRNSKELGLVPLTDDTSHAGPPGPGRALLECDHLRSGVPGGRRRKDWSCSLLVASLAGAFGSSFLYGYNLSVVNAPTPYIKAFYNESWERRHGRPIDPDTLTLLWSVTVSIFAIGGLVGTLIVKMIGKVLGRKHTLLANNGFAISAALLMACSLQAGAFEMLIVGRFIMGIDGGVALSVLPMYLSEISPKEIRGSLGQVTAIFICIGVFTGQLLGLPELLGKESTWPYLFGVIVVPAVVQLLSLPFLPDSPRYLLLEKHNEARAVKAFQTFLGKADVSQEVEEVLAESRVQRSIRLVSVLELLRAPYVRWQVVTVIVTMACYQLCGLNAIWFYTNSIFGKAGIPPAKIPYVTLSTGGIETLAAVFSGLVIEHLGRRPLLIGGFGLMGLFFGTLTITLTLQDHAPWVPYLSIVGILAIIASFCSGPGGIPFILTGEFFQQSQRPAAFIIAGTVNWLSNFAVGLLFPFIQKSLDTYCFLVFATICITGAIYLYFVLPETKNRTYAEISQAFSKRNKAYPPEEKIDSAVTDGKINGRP
Description: as §1
We sought to investigate the effect of tranilast on GLUT9a‐mediated [^14C]‐urate uptake in Xenopus laevis oocytes.

[4] = target: T4, OAT4 (Homo sapiens, UniProt Q9NSA0); test: [14C]-urate uptake by OAT4-expressing Xenopus oocytes; conditions: for trans-stimulatory effect of preloaded anion on OAT4-mediated urate uptake: preinjected 50 nL of 100 mmol/L; for cis-inhibition of OAT4-mediated, maleate trans-stimulated urate uptake: 10 mM extracellular anion
T4 sequence (Q9NSA0 1-550): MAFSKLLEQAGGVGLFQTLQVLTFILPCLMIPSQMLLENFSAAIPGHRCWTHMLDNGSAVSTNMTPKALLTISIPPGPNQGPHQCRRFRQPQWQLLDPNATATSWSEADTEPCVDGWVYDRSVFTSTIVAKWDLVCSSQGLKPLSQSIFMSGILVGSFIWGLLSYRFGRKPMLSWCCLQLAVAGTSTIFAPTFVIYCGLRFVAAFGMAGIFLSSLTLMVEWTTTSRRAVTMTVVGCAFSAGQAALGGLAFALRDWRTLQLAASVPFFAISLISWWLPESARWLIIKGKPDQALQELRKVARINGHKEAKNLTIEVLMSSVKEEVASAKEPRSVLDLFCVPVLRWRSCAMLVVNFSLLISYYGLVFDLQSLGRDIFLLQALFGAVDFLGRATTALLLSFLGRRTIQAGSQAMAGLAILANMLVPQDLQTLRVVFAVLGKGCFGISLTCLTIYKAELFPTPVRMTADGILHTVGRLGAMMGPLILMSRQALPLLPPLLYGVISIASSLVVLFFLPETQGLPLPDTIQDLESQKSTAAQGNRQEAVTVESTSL
Description: as §1
(A) The uptake of [^14C]‐urate by OAT4‐expressing oocytes was performed in ND96 medium (pH 7.4) at ~25°C for 1 h. Na^+‐dependence was examined by replacing extracellular NaCl by KCl. […] (B) The inhibition of [^14C]‐urate uptake by OAT4 was examined in the presence of extracellular organic anions (for cis‐inhibition) or uricosuric drugs at the indicated concentrations. […] Data are mean ± S.E. with n = 12–15.

[5] = target: T2, URAT1; test: [14C]-nicotinate uptake by URAT1-expressing Xenopus oocytes; conditions: for cis-inhibition of URAT1-mediated [14C]-nicotinate uptake by extracellular anion: data not shown
Description: as §1
Data are mean ± S.E. with n = 12–15.

[6] = target: T5, OAT3 (Mus musculus, UniProt O88909); test: [14C]-urate uptake by OAT3-expressing Xenopus oocytes
T5 sequence (O88909 1-537): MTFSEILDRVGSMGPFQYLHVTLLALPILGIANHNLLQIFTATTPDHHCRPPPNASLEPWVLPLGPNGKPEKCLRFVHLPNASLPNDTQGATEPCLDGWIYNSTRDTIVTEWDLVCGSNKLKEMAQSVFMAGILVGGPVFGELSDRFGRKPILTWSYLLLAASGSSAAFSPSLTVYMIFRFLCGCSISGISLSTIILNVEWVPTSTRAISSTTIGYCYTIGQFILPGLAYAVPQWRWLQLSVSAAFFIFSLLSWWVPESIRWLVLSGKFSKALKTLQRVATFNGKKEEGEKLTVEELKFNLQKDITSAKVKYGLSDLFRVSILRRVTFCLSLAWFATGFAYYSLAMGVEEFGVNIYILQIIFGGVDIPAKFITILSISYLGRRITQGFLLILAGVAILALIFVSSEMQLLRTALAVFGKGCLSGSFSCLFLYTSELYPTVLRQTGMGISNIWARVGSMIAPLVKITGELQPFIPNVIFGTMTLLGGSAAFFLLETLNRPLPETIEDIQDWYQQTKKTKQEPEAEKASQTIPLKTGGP
Description: as §1
The uptake of [^14C]‐urate (40 μmol/L) was performed in ND96 medium (pH 7.4) at ~25°C for 1 h.

[7] = target: T1, OAT10; test: [14C]-nicotinate uptake by OAT10-expressing Xenopus oocytes; conditions: preloaded with nonlabeled anion; ND96
Description: as §1
Chloride ion‐dependence was also assessed; in 0 Cl^− bath, NaCl was replaced by Na‐gluconate (Na‐Gluc), KCl by K‐gluconate (K‐Gluc), MgCl2 by Mg‐gluconate, and CaCl2 by Ca‐gluconate. […] Data are mean ± S.E. with n = 12–15.

T1 sequence (Q9Y226 whole entry): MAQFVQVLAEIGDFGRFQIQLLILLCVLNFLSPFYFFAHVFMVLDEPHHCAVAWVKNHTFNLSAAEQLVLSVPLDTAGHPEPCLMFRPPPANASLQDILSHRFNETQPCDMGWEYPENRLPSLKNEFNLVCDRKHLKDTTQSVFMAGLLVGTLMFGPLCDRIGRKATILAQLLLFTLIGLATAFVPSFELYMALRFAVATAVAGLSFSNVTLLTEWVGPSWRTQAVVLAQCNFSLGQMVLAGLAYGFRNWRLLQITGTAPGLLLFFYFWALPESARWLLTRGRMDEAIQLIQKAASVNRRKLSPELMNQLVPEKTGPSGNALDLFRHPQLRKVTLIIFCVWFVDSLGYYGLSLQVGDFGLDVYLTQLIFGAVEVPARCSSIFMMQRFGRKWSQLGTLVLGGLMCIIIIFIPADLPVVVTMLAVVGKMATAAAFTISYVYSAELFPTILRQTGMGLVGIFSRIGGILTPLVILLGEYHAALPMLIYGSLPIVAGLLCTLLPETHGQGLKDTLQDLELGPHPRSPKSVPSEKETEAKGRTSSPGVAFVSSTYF

Structure (SMILES): CC(O)CC(=O)O (stereo not drawn) [BHB, β‐hydroxy butyrate]
- trans-stimulatory effect of preloaded anion on OAT10-mediated urate uptake [1]: modest trans‐stimulatory effect
- trans-stimulatory effect of preloaded intracellular anion on URAT1-mediated urate uptake [2]: did not however detect any significant trans‐stimulatory effect
- cis-inhibition of URAT1-mediated urate uptake by extracellular organic anion ([2]; 10 mM extracellular anion): not cis‐inhibited

Structure (SMILES): Nc1ccc(C(=O)NCC(=O)O)cc1 [PAH, para‐aminohippurate]
- trans-stimulatory effect of preloaded intracellular anion on URAT1-mediated urate uptake [2]: did not however detect any significant trans‐stimulatory effect
- cis-inhibition of URAT1-mediated urate uptake by extracellular organic anion ([2]; 10 mM extracellular anion): not cis‐inhibited

Structure (SMILES): O=C(O)c1cnccn1 [PZA, pyrazine carboxylate]
- trans-stimulatory effect of preloaded anion on OAT10-mediated urate uptake [1]: modest trans‐stimulatory effect
- cis-inhibition of URAT1-mediated urate uptake by extracellular organic anion ([2]; 10 mM extracellular anion): cis‐inhibition
- URAT1 urate uptake after preloading with anion (trans-stimulation), fold over preloaded control oocytes ([2]; oocytes preloaded with nonlabeled anion): 70–75 fold
- Effect of extracellular anion on GLUT9a activity ([3]; Fig. 2C): no effect
- trans-stimulatory effect of preloaded anion on OAT4-mediated urate uptake [4]: no significant effects
- cis-inhibition of URAT1-mediated [14C]-nicotinate uptake by extracellular anion [5]: cis‐inhibited
- URAT1 [14C]-nicotinate uptake after preloading (trans-stimulation), fold over water-injected control oocytes ([5]; preloaded anion): 19–20 fold
- cis-inhibition of OAT3-mediated urate uptake by extracellular anion ([6]; 10 mmol/L extracellular anion): almost completely cis‐inhibited
- Effect of preloaded intracellular anion on OAT3 [14C]-urate uptake (trans-stimulation) ([6]; preloaded anion): did not have any effect
- OAT10 [14C]-nicotinate uptake after preloading, fold over PZA-preloaded control oocytes [7]: 118–120 fold

Structure (SMILES): O=C(O)CC(O)(CC(=O)O)C(=O)O [citrate]
- cis-inhibition of URAT1-mediated urate uptake by extracellular organic anion ([2]; 10 mM extracellular anion): not cis‐inhibited

Structure (SMILES): O=CO [formate]
- cis-inhibition of URAT1-mediated urate uptake by extracellular organic anion [2]: not cis‐inhibited

- cis-inhibition of URAT1-mediated urate uptake by extracellular organic anion ([2]; 10 mM extracellular anion): not cis‐inhibited
Structure (SMILES): CC(O)C(=O)O (stereo not shown) [lactate]
- trans-stimulatory effect of preloaded intracellular anion on URAT1-mediated urate uptake [2]: did not however detect any significant trans‐stimulatory effect

Structure (SMILES): O=C(O)/C=C\C(=O)O [maleate]
- cis-inhibition of URAT1-mediated urate uptake by extracellular organic anion ([2]; 10 mM extracellular anion): not cis‐inhibited
- cis-inhibition of OAT4-mediated, maleate trans-stimulated urate uptake [4]: efficiently cis‐inhibited
- trans-stimulatory effect of preloaded anion on OAT4-mediated urate uptake [4]: modest trans‐stimulatory effect

Structure (SMILES): O=C(O)C(=O)O [oxalate]
- cis-inhibition of URAT1-mediated urate uptake by extracellular organic anion ([2]; 10 mM extracellular anion): not cis‐inhibited

Structure (SMILES): CC(=O)C(=O)O [pyruvate]
- cis-inhibition of URAT1-mediated urate uptake by extracellular organic anion ([2]; 10 mM extracellular anion): not cis‐inhibited

- cis-inhibition of URAT1-mediated urate uptake by extracellular organic anion [2]: cis‐inhibition
- Effect of extracellular anion on GLUT9a activity [3]: no effect
- cis-inhibition of URAT1-mediated [14C]-nicotinate uptake by extracellular anion [5]: cis‐inhibited
Structure (SMILES): O=C(O)c1ccccc1O [salicylate]

- cis-inhibition of URAT1-mediated urate uptake by extracellular organic anion [2]: not cis‐inhibited
- cis-inhibition of OAT4-mediated, maleate trans-stimulated urate uptake [4]: much less cis‐inhibition
- trans-stimulatory effect of preloaded anion on OAT4-mediated urate uptake [4]: no significant effects
Structure (SMILES): O=C(O)CCC(=O)O [succinate]

Structure (SMILES): O=c1[nH]c(=O)c2[nH]c(=O)[nH]c2[nH]1 [urate]
- cis-inhibition of URAT1-mediated [14C]-nicotinate uptake by extracellular anion [5]: cis‐inhibited
